According to patent US11634393B2, “Substituted tolyl fungicides” (FMC CORPORATION, priority 2018, dated 2023):

Columns and labels:
Zymoseptoria tritici = assay: Test A: wheat leaf blotch, spray on wheat seedlings, disease control rating; assay type: in vivo; conditions: 100 = 100% disease control, 0 = no disease control relative to the controls; for pest or weed control at 10 ppm: Rate 10 ppm; for pest or weed control at 250 ppm: Rate 250 ppm
Text: (§1) General protocol for preparing test suspensions for Tests A-F: the test compounds were first dissolved in acetone in an amount equal to 3% of the final volume and then suspended at the desired concentration (in ppm) in acetone and purified water (50/50 mix by volume) containing 250 ppm of the surfactant PEG400 (polyhydric alcohol esters). The resulting test suspensions were then used in Tests A-F.
The test solution was sprayed to the point of run-off on wheat seedlings. The following day the seedlings were inoculated with a spore suspension of Zymoseptoria tritici (the causal agent of wheat leaf blotch) and incubated in a saturated atmosphere at 24° C. for 48 h, and then moved to a growth chamber at 20° C. for 17 days, after which time disease ratings were made.
(§2) A rating of 100 indicates 100% disease control and a rating of 0 indicates no disease control (relative to the controls). A dash (-) indicates the compound was not tested.

[1] = test system: Puccinia recondita f. sp. tritici; assay: Test B: wheat leaf rust, spray on wheat seedlings, disease control rating; assay type: in vivo; conditions: Puccinia recondita, 192 h, 100 = 100% disease control, 0 = no disease control relative to the controls; for pest or weed control at 10 ppm: Rate 10 ppm; for pest or weed control at 250 ppm: Rate 250 ppm
How it was run: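 Compound in acetone (3% of final volume) was suspended at the stated ppm in acetone/water 50/50 with 250 ppm PEG400 and sprayed to run-off on wheat seedlings. Puccinia recondita spores were inoculated next day, then 24 h saturated atmosphere at 20 °C and 7 days at 20 °C. Rated 0–100% disease control versus controls.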

[2] = test system: Blumeria graminis f. sp. tritici; assay: Test C: wheat powdery mildew, spray on wheat seedlings, disease control rating; assay type: in vivo; conditions: 192 h, 100 = 100% disease control, 0 = no disease control relative to the controls; for pest or weed control at 10 ppm: Rate 10 ppm; for pest or weed control at 250 ppm: Rate 250 ppm
Text: as §1
The test suspension was sprayed to the point of run-off on wheat seedlings. The following day the seedlings were inoculated with a spore dust of Blumeria graminis f. sp. tritici, (also known as Erysiphe graminis f. sp. tritici, the causal agent of wheat powdery mildew) and incubated in a growth chamber at 20° C. for 8 days, after which time visual disease ratings were made.
as §2

Phakopsora pachyrhizi = assay: Test D: Asian soybean rust, spray on soybean seedlings, disease control rating; assay type: in vivo; conditions: Phakopsora pachyrhizi, 216 h, 100 = 100% disease control, 0 = no disease control relative to the controls; for pest or weed control at 10 ppm: Rate 10 ppm; for pest or weed control at 250 ppm: Rate 250 ppm
How it was run: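 Soybean seedlings sprayed to run-off with compound suspension (ppm, in 50/50 acetone/water with 250 ppm PEG400), inoculated next day with P. pachyrhizi spores, held 24 h saturated at 22°C then 8 days at 22°C. Visual rating 0-100% disease control relative to controls.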

Botrytis cinerea = assay: Test E: tomato Botrytis, spray on tomato seedlings, disease control rating; assay type: in vivo; conditions: 100 = 100% disease control, 0 = no disease control relative to the controls; for pest or weed control at 10 ppm: Rate 10 ppm; for pest or weed control at 250 ppm: Rate 250 ppm
Text: as §1
The test suspension was sprayed to the point of run-off on tomato seedlings. The following day the seedlings were inoculated with a spore suspension of Botrytis cinerea (the causal agent of tomato Botrytis) and incubated in a saturated atmosphere at 20° C. for 48 h, and then moved to a growth chamber at 24° C. for 3 days, after which time visual disease ratings were made.
as §2

Row | Structure (SMILES) | pest or weed control at 10 ppm [1] | pest or weed control at 10 ppm (Phakopsora pachyrhizi) | melting point | also measured
1 | COC(=O)NCc1cc(-c2ccn(-c3c(F)cc([N+](=O)[O-])cc3F)n2)ccc1C [Compound 1, methyl N-[[5-[1-(2,6-difluoro-4-nitrophenyl)-1H-pyrazol-3-yl]-2-methylphenyl]methyl]carbamate] | 68% | 44% |  | pest or weed control at 10 ppm (Zymoseptoria tritici): 0%; pest or weed control at 10 ppm [2]: 0%; pest or weed control at 10 ppm (Botrytis cinerea): 0%
2 | COC(=O)NCc1cc(-c2ccn(-c3c(F)cc(C#N)cc3F)n2)ccc1C [Compound 2] | 68% | 100% | 171 to 174 °C | pest or weed control at 10 ppm (Zymoseptoria tritici): 13%; pest or weed control at 10 ppm [2]: 0%; pest or weed control at 10 ppm (Botrytis cinerea): 0%
3 | COC(=O)NCc1cc(-c2ccn(-c3c(F)cc(OC)cc3F)n2)ccc1C [Compound 3, methyl N-[[5-[1-(2,6-difluoro-4-methoxyphenyl)-1H-pyrazol-3-yl]-2-methylphenyl]methyl]carbamate] | 100% | 100% |  | pest or weed control at 10 ppm (Zymoseptoria tritici): 50%; pest or weed control at 10 ppm [2]: 79%; pest or weed control at 10 ppm (Botrytis cinerea): 45%
4 | COC(=O)NCc1cc(-c2ccn(-c3c(F)cc(Cl)cc3F)n2)ccc1C [Compound 6, methyl N-[[5-[1-(4-chloro-2,6-difluorophenyl)-1H-pyrazol-3-yl]-2-methylphenyl]methyl]carbamate] | 98% | 100% | 148 to 149 °C | pest or weed control at 10 ppm (Zymoseptoria tritici): 7%; pest or weed control at 10 ppm [2]: 0%; pest or weed control at 10 ppm (Botrytis cinerea): 0%
5 | COC(=O)NCc1cc(-c2ccn(-c3c(F)cc(OC(F)F)cc3F)n2)ccc1C [Compound 15, methyl N-[[5-[1-[4-(difluoromethoxy)-2,6-difluorophenyl]-1H-pyrazol-3-yl]-2-methylphenyl]methyl]carbamate] | 99% | 100% | 102 to 103 °C | pest or weed control at 10 ppm (Zymoseptoria tritici): 0%; pest or weed control at 10 ppm [2]: 69%; pest or weed control at 10 ppm (Botrytis cinerea): 0%
6 | COC(=O)NCc1cc(-c2ccn(-c3c(F)cc(C(C)C)cc3F)n2)ccc1C [Compound 63, methyl N-[[5-[1-[2,6-difluoro-4-(1-methylethyl)phenyl]-1H-pyrazol-3-yl]-2-methylphenyl]methyl]carbamate] | 100% | 100% |  | pest or weed control at 10 ppm (Zymoseptoria tritici): 26%; pest or weed control at 10 ppm [2]: 98%; pest or weed control at 10 ppm (Botrytis cinerea): 0%
7 | COC(=O)NCc1cc(-c2ccn(-c3c(F)cc(C(F)(F)F)cc3F)n2)ccc1C [Compound 64, methyl N-[[5-[1-[2,6-difluoro-4-(trifluoromethyl)phenyl]-1H-pyrazol-3-yl]-2-methylphenyl]methyl]carbamate] | 100% | 100% | 106 to 108 °C | pest or weed control at 10 ppm (Zymoseptoria tritici): 0%; pest or weed control at 10 ppm [2]: 89%; pest or weed control at 10 ppm (Botrytis cinerea): 0%
8 | COC(=O)NCc1cc(-c2ncn(-c3c(F)cc(Br)cc3F)n2)ccc1C [Compound 104] | 100% | 90% | 175 to 179 °C | 
9 | COC(=O)NCc1cc(-c2ncn(-c3c(F)cc([N+](=O)[O-])cc3F)n2)ccc1C [Compound 107] |  |  | 179 to 183 °C | pest or weed control at 250 ppm (Zymoseptoria tritici): 28%; pest or weed control at 250 ppm [1]: 80%; pest or weed control at 250 ppm [2]: 43%; pest or weed control at 250 ppm (Phakopsora pachyrhizi): 0%; pest or weed control at 250 ppm (Botrytis cinerea): 0%
10 | COC(=O)NCc1cc(-c2cnn(-c3c(F)cc(C(C)C)cc3F)n2)ccc1C [Compound 108, methyl N-[[5-[2-[2,6-difluoro-4-(1-methylethyl)phenyl]-2H-1,2,3-triazol-4-yl]-2-methylphenyl]methyl]carbamate] |  |  | 102 to 106 °C | pest or weed control at 2 ppm ([1]; Rate 2 ppm): 100%; pest or weed control at 2 ppm (Phakopsora pachyrhizi; Rate 2 ppm): 100%
11 | COC(=O)NCc1cc(-c2cnn(-c3c(F)cc(C)cc3F)n2)ccc1C [Compound 111] | 99% | 100% | 117 to 121 °C | 
12 | COC(=O)NCc1cc(-c2cnn(-c3c(F)cc(C4CC4)cc3F)n2)ccc1C [Compound 113] | 100% | 100% | 107 to 111 °C | 
13 | COC(=O)NCc1cc(-c2cnn(-c3c(F)cc(Br)cc3F)n2)ccc1C [Compound 114] | 100% | 100% | 136 to 140 °C | 
14 | COC(=O)NCc1cc(-c2cnn(-c3c(F)cc(I)cc3F)n2)ccc1C [Compound 116] | 100% | 100% | 154 to 158 °C | 
15 | COC(=O)NCc1cc(-c2cnn(-c3c(F)cc([N+](=O)[O-])cc3F)n2)ccc1C [Compound 118, methyl N-[[5-[2-(2,6-difluoro-4-nitrophenyl)-2H-1,2,3-triazol-4-yl]-2-methylphenyl]methyl]carbamate] |  |  |  | pest or weed control at 250 ppm (Zymoseptoria tritici): 1%; pest or weed control at 250 ppm [1]: 0%; pest or weed control at 250 ppm [2]: 0%; pest or weed control at 250 ppm (Phakopsora pachyrhizi): 0%; pest or weed control at 250 ppm (Botrytis cinerea): 0%
16 | COC(=O)NCc1cc(-c2cn(-c3c(F)cc(C)cc3F)nn2)ccc1C [Compound 119] | 100% | 0% | 143 to 147 °C | 
17 | COC(=O)NCc1cc(-c2cn(-c3c(Cl)cc(OC)cc3OC)nn2)ccc1C [Compound 120] | 0% | 0% | 145 to 148 °C | 
18 | COC(=O)NCc1cc(-c2cn(-c3c(F)cc(Cl)cc3F)nn2)ccc1C [Compound 121, methyl N-[[5-[1-(4-chloro-2,6-difluorophenyl)-1H-1,2,3-triazol-4-yl]-2-methylphenyl]methyl]carbamate] | 68% | 0% | 159 to 163 °C | 
19 | COC(=O)NCc1cc(-c2cn(-c3c(Cl)cc(OC)cc3Cl)nn2)ccc1C [Compound 123] | 0% | 0% | 148 to 152 °C | 
20 | COC(=O)NCc1cc(-c2cn(-c3c(C)cc(OC)cc3C)nn2)ccc1C [Compound 124] | 0% | 0% | 110 to 114 °C | 
21 | COC(=O)NCc1cc(-c2cn(-c3c(F)cc(I)cc3F)nn2)ccc1C [Compound 125] | 68% | 0% | 166 to 170 °C | 
22 | COC(=O)NCc1cc(-c2cn(-c3c(F)cc(Br)cc3F)nn2)ccc1C [Compound 126] | 57% | 0% | 160 to 164 °C | 
23 | COC(=O)NCc1cc(-c2cn(-c3c(Br)cc(OC)cc3Br)nn2)ccc1C [Compound 128] | 0% | 0% | 167 to 171 °C | 
24 | COC(=O)NCc1cc(-c2cn(-c3c(Br)cc(OC)cc3[N+](=O)[O-])nn2)ccc1C [Compound 129] | 0% | 0% | 158 to 162 °C | 
25 | COC(=O)NCc1cc(-c2cn(-c3c(F)cc(OC)cc3F)nn2)ccc1C [Compound 130] | 68% | 0% | 146 to 150 °C | 
26 | COC(=O)NCc1cc(-c2cnn(-c3c(F)cc(C(F)(F)F)cc3F)n2)ccc1C [Compound 141] | 99% | 100% | 138 to 142 °C | 
